Assay [1] concerns lymphoma cell line EL4. The experiment in a line: Murine syngeneic skin tumour model, EL4, carboplatin and oxaliplatin (Example 3). The note with it: EL4 s.c. in C57Bl/6 mice; IMP321 50 μg s.c. D7-D25; Carboplatin 16 mg/kg i.p. D6, D10, D13, D17; Oxaliplatin 3 mg/kg i.p. D6, D10; FIG. 3A/3B. The format is in vivo. The method, then:
(§1) A murine syngeneic skin tumour model was established using the lymphoma cell line EL4.
The minimum tumorigenic dose (MTD) of tumour cells (5×10^5 cells) was implanted by s.c. injection in the right flank of C57Bl/6 mice (5 weeks old) at Day 0. The mice were injected with phosphate buffered saline (PBS) (Group 1 mice), IMP321 (Group 2 mice), IMP321 and Carboplatin (Group 3 mice), Carboplatin alone (Group 4 mice), IMP321 and Oxaliplatin (Group 5 mice), or Oxaliplatin alone (Group 6 mice) according to the following schedule: • Group 1 (10 mice): negative control: PBS s.c. injection at D7, D11, D14, D18, D21 and D25; • Group 2 (10 mice): IMP321 s.c. injection (50 μg, 1.9 mg/m) at D7, D11, D14, D18, D21 and D25; • Group 3 (9 mice): IMP321 s.c. injection (50 μg, 1.9 mg/ml) at D7, D11, D14, D18, D21 and D25, plus Carboplatin i.p. injection (288 μg, 16 mg/kg) at D6, D10, D13 and D17; • Group 4 (10 mice): Carboplatin i.p. injection (288 μg, 16 mg/kg) at D6, D10, D13 and D17; • Group 5 (10 mice): IMP321 s.c. injection (50 μg, 1.9 mg/m) at D7, D11, D14, D18, D21 and D25, plus Oxaliplatin i.p. injection (54 μg, 3 mg/kg) at D6 and D10; • Group 6 (10 mice): Oxaliplatin i.p. injection (54 μg, 3 mg/kg) at D6 and D10.
Tumour growth was monitored twice a week by measuring two perpendicular tumor diameters using calipers. […] Tumour size means the cross-sectional area in mm^2.

The subject of assay [2] is Mouse colon 38 (C38) tumor fragments. The experiment in a line: C38 colon adenocarcinoma tumor model (Example 4). The conditions noted are these: C38 fragments s.c. in C57BL/6 mice; oxaliplatin 5 mg/kg IV Q7Dx4; IMP321 20 μg SC Q7Dx4, day after oxaliplatin; FIG. 4A.
Protocol: The effect of combined treatment with the LAG-3 derivative IMP321 (also referred to as hLAG-3Ig) and oxaliplatin in the C38 colon adenocarcinoma tumor model was evaluated. In this model, tumor fragments are surgically implanted subcutaneously.
Mouse colon 38 (C38) tumor fragments were obtained frozen from the Division of Cancer Treatment, Tumor Repository, NCI (Frederick, MD, USA). The C38 fragments were stored frozen in DMSO/SVF/RPMI 1640 medium (10/10/80) in liquid nitrogen until use. The fragments were thawed at 37° C. for 5 min, rinsed twice in RPMI 1640 medium before subcutaneous (SC) implantation in mice. The C38 tumors were serially transplanted in C57Bl/6 mice.
Small C38 tumor fragments (20-30 mg) were subcutaneously implanted in the right flank of 12 C57BL/6 mice. When tumor sizes reached 500-1000 mm^3, tumors were surgically excised and small C38 tumor fragments (20-30 mg) were subcutaneously implanted in the right flank of recipient C57BL/6 mice.
Treatment started when the tumors reached a mean volume of 200-300 mm^3. […]
For assay [3], the system named is lymphoma cell line EL4. Put plainly: Murine syngeneic skin tumour model, EL4 (Example 2). The format is in vivo. The note with it: EL4 s.c. in C57Bl/6 mice; IMP321 50 μg s.c. D7-D24; Carboplatin 16 mg/kg i.p. D6, D10, D13, D17; FIG. 2. How it is done: as §1
The minimum tumorigenic dose (MTD) of tumour cells (5×10^5 cells) was implanted by s.c. injection in the right flank of C57Bl/6 mice (5 weeks old) at Day 0. The mice were injected with phosphate buffered saline (PBS) (Group 1 mice), IMP321 (Group 2 mice), IMP321 and Carboplatin (Group 3 mice), or Carboplatin alone (Group 4 mice) according to the following schedule: • Group 1 (8 mice): negative control: PBS s.c. injection at D7, D11, D14, D19, D21 and D24; • Group 2 (8 mice): IMP321 s.c. injection (50 μg, 3.96 mg/ml) at D7, D11, D14, D19, D21 and D24; • Group 3 (8 mice): IMP321 s.c. injection (50 μg, 3.96 mg/m) at D7, D11, D14, D19, D21 and D24, plus Carboplatin i.p. injection (288 μg, 16 mg/kg) at D6, D10, D13 and D17; • Group 4 (8 mice): Carboplatin i.p. injection (288 μg, 16 mg/kg) at D6, D10, D13 and D17.
Tumour growth was monitored twice a week by measuring two perpendicular tumor diameters using calipers. Tumour size means the cross-sectional area in mm^2.

In assay [4] the test system is colorectal adenocarcinoma cell line CT26. Put plainly: Murine syngeneic skin tumour model, CT26 (Example 1). The format is in vivo. The note with it: CT26 s.c. in BALB/c mice; IMP321 50 μg s.c. D11-D28; Topotecan 2.5 mg/kg i.p. D10, D13, D17; FIG. 1. The method, then:
A murine syngeneic skin tumour model was established using the colorectal adenocarcinoma cell line CT26.
One quarter of the minimum tumorigenic dose (MTD) of tumour cells (0.5×10^5 cells) was implanted by subcutaneous (s.c.) injection in the right flank of four groups of BALB/c mice (5 weeks old) at Day 0. The mice were injected with phosphate buffered saline (PBS) (Group 1 mice), the LAG-3 derivative IMP321 (Group 2 mice), IMP321 and Topotecan (Group 3 mice), or Topotecan alone (Group 4 mice) according to the following schedule: • Group 1 (8 mice): negative control: PBS s.c. injection at D11, D14, D18, D21, D25 and D28; • Group 2 (7 mice): IMP321 s.c. injection (50 μg, 1.9 mg/ml) at D11, D14, D18, D21, D25 and D28; • Group 3 (8 mice): IMP321 s.c. injection (50 μg, 1.9 mg/ml) at D11, D14, D18, D21, D25 and D28, plus Topotecan i.p. injection (45 μg, 2.5 mg/kg) at D10, D13 and D17; • Group 4 (8 mice): Topotecan i.p. injection (45 μg, 2.5 mg/kg) at D10, D13 and D17.
Tumour growth was monitored twice a week by measuring two perpendicular tumour diameters using calipers. Tumour size means the cross-sectional area in mm^2.

Where a name gives a salt, the structure may show the parent alone.

Take `O=C1[O][Pt]2([NH][C@@H]3CCCC[C@H]3[NH]2)[O]C1=O` [Oxaliplatin, [(1R,2R)-cyclohexane-1,2-diamine](ethanedioato-O,O′)platinum(II)]: the “effect on tumour growth (tumour size, cross-sectional area)” value (from here on “effect on tumour growth”) in the assay on lymphoma cell line EL4 [1] is listed as “had an effect”. In assay [2], the “effect on delaying tumor growth” value is “a slight effect”.
As for `[NH2][Pt]1([NH2])[O]C(=O)C2(CCC2)C(=O)[O]1` [carboplatin, cis-diammine(cyclobutane-1,1-dicarboxylate-O,O′)platinum(I)], the “effect on tumour growth” value is “very little effect, if any” in the assay on lymphoma cell line EL4 [3] and “some effect” in the assay with lymphoma cell line EL4 [1].
With `CC[C@@]1(O)C(=O)OCc2c1cc1n(c2=O)Cc2cc3c(CN(C)C)c(O)ccc3nc2-1` [topotecan, (S)-10-[(dimethylamino)methy]-4-ethyl-4,9-dihydroxy-1H-pyrano[3′,4′:6,7]indolizino[1,2-b] quinoline-3,14(4H,12H)-dione monohydrochloride], in assay [4], the “effect on tumour growth” value is on record as “some effect on reducing tumor growth”.

B1: IMP321: recombinant soluble human LAG-3Ig fusion protein, 200-kDa dimer: extracellular domain of hLAG-3 fused to human IgG1 Fc (protein)
chain: LQPGAEVPVVWAQEGAPAQLPCSPTIPLQDLSLLRRAGVTWQHQPDSGPPAAAPGHPLAPGPHPAAPSSWGPRPRRYTVLSVGPGGLRSGRLPLQPRVQLDERGRQRGDFSLWLRPARRADAGEYRAAVHLRDRALSCRLRLRLGQASMTASPPGSLRASDWVILNCSFSRPDRPASVHWFRNRGQGRVPVRESPHHHLAESFLFLPQVSPMDSGPWGCILTYRDGFNVSIMYNLTVLGLEPPTPLTVYAGAGSRVGLPCRLPAGVGTRSFLTAKWTPPGGGPDLLVTGDNGDFTLRLEDVSQAQAGTYTCHIHLQEQQLNATVTLAIITVTPKSFGSPGSLGKLLCEVTPVSGQERFVWSSLDTPSQRSFSGPWLEAQEAQLLSQPWQCQLYQGERLLGAAVYFTELSSPG
modifications: left off: small tags and cut ends; a dimerising Fc or GST
notes: recombinant soluble human LAG-3Ig fusion protein, 200-kDa dimer: extracellular domain of hLAG-3 fused to human IgG1 Fc
For B1, the “effect on tumour growth” value in assay [4] is on record as “no effect on tumour growth”; with lymphoma cell line EL4 [3], “no effect on tumour growth”; in the assay on lymphoma cell line EL4 [1] it was “little, if any effect”. Also, in assay [2], the “effect on delaying tumor growth” value is “no effect on delaying tumor growth”.

Source of the values: patent US12214012B2, “Combined preparations for the treatment of cancer” (IMMUTEP S.A.S., priority 2013, dated 2025).
